Drawing on patent US20250248973A1, “CANNABINOID RECEPTOR 1 ANTAGONISTS/INVERSE AGONISTS AND USES THEREOF” (Corbus Pharmaceuticals, Inc., priority 2022, published 2025), this text covers IC50 for 23 compounds.

The target of assay [1] is Human CB1 Receptor-1 (hCB1) (Homo sapiens (Human), UniProt P21554). The assay can be described thus: hCB1 Gai cyclic AMP (cAMP) TR-FRET assay, antagonism of EC80 CP55940 with forskolin. The following applies: hCB1 cells, 30 min pre-incubation. In kind it is cell-based. As to the method: (§1) Example 3. Biochemical Methods Human CB1 Receptor-1 (hCB1) and Human CB1 Receptor-1b (hCBib)
(§2) hCB1/hCB1 b Gai Cyclic AMP (cAMP) Assays: Cells were seeded in a 384-well plate at an appropriate density from frozen cells. The cAMP assays were performed according to the manufacturer's protocol using MULTISCREEN™ TR-FRET cAMP 1.0 No Wash Assay Kit. Cells (hCB1 or hCB1 b) were pre-incubated with customer compounds for 30 minutes at rt followed by addition of EC80 CP55940 concentration and Forskolin. Cells were then incubated for 20 minutes at 37C. The reaction was terminated by sequentially adding sequentially adding MULTISCREEN™ Eu-labeled cAMP and MULTISCREEN™ 650-labeled anti-cAMP antibody in lysis buffer. The plate was then incubated at rt for 30 minutes before reading fluorescent emissions at 620 nm and 665 with excitation at 314 nm on FlexStation III (Molecular Devices). The results are shown in Table 2 (“***” denotes an IC50<100 nM; “**” denotes an IC50 between 100 nM and 500 nM, and “*” denotes an IC50>500 nM).

Assay [2] has as its target Human CB1 Receptor-1b (hCB1b) (Homo sapiens (Human), UniProt P21554). In words: hCB1b Gai cyclic AMP (cAMP) TR-FRET assay, antagonism of EC80 CP55940 with forskolin. In kind it is cell-based. Conditions: hCB1b cells, 30 min pre-incubation, read-out: CB1b IC50. As for the experimental part: as §1, §2

Human CB1 Receptor-1 (hCB1), sequence (P21554 whole entry): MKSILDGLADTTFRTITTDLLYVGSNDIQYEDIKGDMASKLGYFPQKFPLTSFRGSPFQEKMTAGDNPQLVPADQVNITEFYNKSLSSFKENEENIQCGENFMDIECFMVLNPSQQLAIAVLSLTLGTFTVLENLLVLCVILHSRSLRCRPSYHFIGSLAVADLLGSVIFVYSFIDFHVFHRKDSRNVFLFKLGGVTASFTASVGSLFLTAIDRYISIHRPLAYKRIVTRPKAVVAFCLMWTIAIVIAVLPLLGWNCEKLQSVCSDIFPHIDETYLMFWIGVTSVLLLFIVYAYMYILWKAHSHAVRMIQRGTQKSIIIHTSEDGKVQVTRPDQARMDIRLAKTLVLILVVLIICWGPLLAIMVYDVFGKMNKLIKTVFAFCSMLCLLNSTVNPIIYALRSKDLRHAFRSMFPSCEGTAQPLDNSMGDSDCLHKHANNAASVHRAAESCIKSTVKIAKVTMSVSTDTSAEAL
Human CB1 Receptor-1b (hCB1b), sequence (P21554 other isoform, or with tags, fused parts or gaps): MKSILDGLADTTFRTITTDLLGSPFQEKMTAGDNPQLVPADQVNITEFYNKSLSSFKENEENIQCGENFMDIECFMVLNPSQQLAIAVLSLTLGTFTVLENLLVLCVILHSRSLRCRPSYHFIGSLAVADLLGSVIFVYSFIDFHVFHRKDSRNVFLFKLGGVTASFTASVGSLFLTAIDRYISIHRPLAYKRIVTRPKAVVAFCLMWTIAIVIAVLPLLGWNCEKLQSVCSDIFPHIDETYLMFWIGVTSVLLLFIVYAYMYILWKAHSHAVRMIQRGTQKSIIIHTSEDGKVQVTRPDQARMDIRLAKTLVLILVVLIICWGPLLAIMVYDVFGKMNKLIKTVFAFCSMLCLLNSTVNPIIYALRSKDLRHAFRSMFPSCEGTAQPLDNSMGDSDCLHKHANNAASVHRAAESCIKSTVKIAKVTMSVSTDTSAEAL

Turning to `C[C@H](CS(N)(=O)=O)N/C(=N\S(=O)(=O)c1ccc(Cl)cc1)N1C[C@H](c2ccccc2)C(c2ccc(F)cc2)=N1` [Compound 57, (S,E)-N′-((4-chlorophenyl)sulfonyl)-3-(4-fluorophenyl)-4-phenyl-N-((R)-1-sulfamoylpropan-2-yl)-4,5-dihydro-1H-pyrazole-1-carboximidamide], the IC50 in assay [1] and in assay [2] was > 500 nM throughout.
Take `C[C@@H](CN/C(=N\S(=O)(=O)c1ccc(Cl)cc1)N1C[C@H](c2ccccc2)C(c2ccc(Cl)cc2)=N1)S(N)(=O)=O` [Compound 6, (S,E)-3-(4-chlorophenyl)-N′-((4-chlorophenyl)sulfonyl)-4-phenyl-N-((S)-2-sulfamoylpropyl)-4,5-dihydro-1H-pyrazole-1-carboximidamide]: the IC50 in assay [1] was 100 to 500 nM; in assay [2], < 100 nM.
Consider `CN1CCN(S(=O)(=O)CCN/C(=N\S(=O)(=O)c2ccc(F)cc2)N2C[C@H](c3ccccc3)C(c3ccc(F)cc3)=N2)CC1` [Compound 165, (S,E)-3-(4-fluorophenyl)-N′-((4-fluorophenyl)sulfonyl)-N-(2-((4-methylpiperazin-1-yl)sulfonyl)ethyl)-4-phenyl-4,5-dihydro-1H-pyrazole-1-carboximidamide], for which the figures for the IC50 in assay [1] and in assay [2] were < 100 nM and 100 to 500 nM, respectively.
`C[C@H](CS(N)(=O)=O)N/C(=N\S(=O)(=O)c1ccc(Cl)cc1)N1CC(c2ccccc2)C(c2ccc(Cl)cc2)=N1` (stereo in doubt) [Compound 3, (R,E)-3-(4-chlorophenyl)-N′-((4-chlorophenyl)sulfonyl)-4-phenyl-N-((R)-1-sulfamoylpropan-2-yl)-4,5-dihydro-1H-pyrazole-1-carboximidamide]: the figures for the IC50 in assay [1] and in assay [2] were > 500 nM and 100 to 500 nM, respectively.
Regarding `C[C@H](CN/C(=N\S(=O)(=O)c1ccc(F)cc1)N1C[C@H](c2ccccc2)C(c2ccc(Cl)cc2)=N1)S(N)(=O)=O` [Compound 14, (S,E)-3-(4-chlorophenyl)-N′-((4-fluorophenyl)sulfonyl)-4-phenyl-N-((R)-2-sulfamoylpropyl)-4,5-dihydro-1H-pyrazole-1-carboximidamide], the IC50 in assay [1] and in assay [2] was < 100 nM in each case.
For the compound `C[C@H](CN/C(=N\S(=O)(=O)c1ccc(C(F)(F)F)cc1)N1C[C@H](c2ccccc2)C(c2ccc(F)cc2)=N1)S(N)(=O)=O` (single isomer, unassigned) [Compound 47], the IC50 in assay [1] and in assay [2] was < 100 nM in each case.
For `NS(=O)(=O)[C@H]1CC[C@H](N/C(=N/S(=O)(=O)c2ccc(Cl)cc2)N2C[C@H](c3ccccc3)C(c3ccc(F)cc3)=N2)CC1` (single isomer, unassigned) [Compound 125], the IC50 in assay [1] and in assay [2] was 100 to 500 nM in each case.
Regarding `NS(=O)(=O)NCCN/C(=N\S(=O)(=O)c1ccc(Cl)cc1)N1C[C@H](c2ccccc2)C(c2ccc(Cl)cc2)=N1` [Compound 183, (S,E)-3-(4-chlorophenyl)-N′-((4-chlorophenyl)sulfonyl)-4-phenyl-N-(2-(sulfamoylamino)ethyl)-4,5-dihydro-1H-pyrazole-1-carboximidamide], the IC50 in assay [1] and in assay [2] was < 100 nM in each case.
For the compound `NS(=O)(=O)[C@H]1CC[C@@H](N/C(=N/S(=O)(=O)c2ccc(Cl)cc2)N2C[C@H](c3ccccc3)C(c3ccc(F)cc3)=N2)C1` [Compound 147, (S,Z)-N′-((4-chlorophenyl)sulfonyl)-3-(4-fluorophenyl)-4-phenyl-N-((1R,3S)-3-sulfamoylcyclopentyl)-4,5-dihydro-1H-pyrazole-1-carboximidamide], the IC50 in assay [1] and in assay [2] was 100 to 500 nM each time.
With `NS(=O)(=O)[C@H]1CC[C@H](N/C(=N/S(=O)(=O)c2ccc(Cl)cc2)N2C[C@@H](c3ccccc3)C(c3ccc(Cl)cc3)=N2)CC1` (single isomer, unassigned) [Compound 122], the IC50 in assay [1] and in assay [2] was 100 to 500 nM throughout.
With `O=S(=O)(/N=C(\NCCS(=O)(=O)N1CCNCC1)N1C[C@H](c2ccccc2)C(c2ccc(Cl)cc2)=N1)c1ccc(Cl)cc1` [Compound 159, (S,E)-3-(4-chlorophenyl)-N′-((4-chlorophenyl)sulfonyl)-4-phenyl-N-(2-(piperazin-1-ylsulfonyl)ethyl)-4,5-dihydro-1H-pyrazole-1-carboximidamide], the IC50 in assay [1] and in assay [2] was < 100 nM in each case.
Turning to `C[C@H](CN/C(=N\S(=O)(=O)c1ccc(Cl)cc1)N1C[C@H](c2ccccc2)C(c2ccc(Cl)cc2)=N1)S(N)(=O)=O` [Compound 5, (S,E)-3-(4-chlorophenyl)-N′-((4-chlorophenyl)sulfonyl)-4-phenyl-N-((R)-2-sulfamoylpropyl)-4,5-dihydro-1H-pyrazole-1-carboximidamide], the IC50 in assay [1] is < 100 nM; in assay [2], 100 to 500 nM.
Consider `NS(=O)(=O)CCNC(=NS(=O)(=O)c1ccccc1Cl)N1C[C@H](c2ccccc2)C(c2ccc(Cl)cc2)=N1` [Compound 29, (S)-3-(4-chlorophenyl)-N′-((2-chlorophenyl)sulfonyl)-4-phenyl-N-(2-sulfamoylethyl)-4,5-dihydro-1H-pyrazole-1-carboximidamide], for which the IC50 in assay [1] and in assay [2] was < 100 nM each time.
`NS(=O)(=O)[C@H]1C[C@H](N/C(=N/S(=O)(=O)c2ccc(Cl)cc2)N2C[C@H](c3ccccc3)C(c3ccc(Cl)cc3)=N2)C1` (single isomer, unassigned) [Compound 115]: the IC50 in assay [1] and in assay [2] was < 100 nM each time.
Take `C[C@H](CN/C(=N\S(=O)(=O)c1ccc(F)cc1)N1C[C@H](c2ccccc2)C(c2ccc(F)cc2)=N1)S(N)(=O)=O` [Compound 53, (S,E)-3-(4-fluorophenyl)-N′-((4-fluorophenyl)sulfonyl)-4-phenyl-N-((R)-2-sulfamoylpropyl)-4,5-dihydro-1H-pyrazole-1-carboximidamide]: the half-inhibitory concentration (IC50) in assay [1] and in assay [2] was < 100 nM in each case.
On to `NS(=O)(=O)C1CCN(/C(=N/S(=O)(=O)c2ccc(Cl)cc2)N2C[C@H](c3ccccc3)C(c3ccc(Cl)cc3)=N2)CC1` [Compound 113, (S,Z)-1-((3-(4-chlorophenyl)-4-phenyl-4,5-dihydro-1H-pyrazol-1-yl)(((4-chlorophenyl)sulfonyl)imino)methyl)piperidine-4-sulfonamide], for which the IC50 in assay [1] and in assay [2] was > 500 nM each time.
Consider `NS(=O)(=O)CCCCN/C(=N\S(=O)(=O)c1ccc(Cl)cc1)N1C[C@H](c2ccccc2)C(c2ccc(Cl)cc2)=N1` [Compound 99, (S,E)-3-(4-chlorophenyl)-N′-((4-chlorophenyl)sulfonyl)-4-phenyl-N-(4-sulfamoylbutyl)-4,5-dihydro-1H-pyrazole-1-carboximidamide], for which the IC50 in assay [1] and in assay [2] was > 500 nM in each case.
With `NS(=O)(=O)CCNC(=NS(=O)(=O)c1ccc(F)cc1)N1C[C@H](c2ccccc2)C(c2ccc(F)cc2)=N1` [Compound 51, (S)-3-(4-fluorophenyl)-N′-((4-fluorophenyl)sulfonyl)-4-phenyl-N-(2-sulfamoylethyl)-4,5-dihydro-1H-pyrazole-1-carboximidamide], the IC50 in assay [1] and in assay [2] was 100 to 500 nM in each case.
In the case of `NS(=O)(=O)[C@H]1CC[C@H](N/C(=N/S(=O)(=O)c2ccc(Cl)cc2)N2C[C@H](c3ccccc3)C(c3ccc(Cl)cc3)=N2)C1` (single isomer, unassigned) [Compound 139], the IC50 in assay [1] and in assay [2] was 100 to 500 nM in each case.
In the case of `NS(=O)(=O)NC1(CN/C(=N\S(=O)(=O)c2ccc(C(F)(F)F)cc2)N2C[C@H](c3ccccc3)C(c3ccc(Cl)cc3)=N2)CC1` [Compound 235, (S,E)-3-(4-chlorophenyl)-4-phenyl-N-((1-(sulfamoylamino)cyclopropyl)methyl)-N′-((4-(trifluoromethyl)phenyl)sulfonyl)-4,5-dihydro-1H-pyrazole-1-carboximidamide], the values for the IC50 in assay [1] and in assay [2] were 100 to 500 nM and < 100 nM, respectively.
For `NS(=O)(=O)[C@H]1C[C@@H](N/C(=N/S(=O)(=O)c2ccc(Cl)cc2)N2C[C@H](c3ccccc3)C(c3ccc(Cl)cc3)=N2)C1` (single isomer, unassigned) [Compound 116], in that order: 100 to 500 nM and 100 to 500 nM.
On to `CN(CCNS(N)(=O)=O)/C(=N\S(=O)(=O)c1ccc(Cl)cc1)N1C[C@H](c2ccccc2)C(c2ccc(Cl)cc2)=N1` [Compound 173, (S,E)-3-(4-chlorophenyl)-N′-((4-chlorophenyl)sulfonyl)-N-methyl-4-phenyl-N-(2-(sulfamoylamino)ethyl)-4,5-dihydro-1H-pyrazole-1-carboximidamide], for which the IC50 in assay [1] and in assay [2] was 100 to 500 nM throughout.
Regarding `NS(=O)(=O)CCN/C(=N\S(=O)(=O)c1ccc(Cl)cc1)N1C[C@H](c2ccccc2)C(c2ccc(F)cc2)=N1` [Compound 45, (S,E)-N′-((4-chlorophenyl)sulfonyl)-3-(4-fluorophenyl)-4-phenyl-N-(2-sulfamoylethyl)-4,5-dihydro-1H-pyrazole-1-carboximidamide], the IC50 in assay [1] and in assay [2] was < 100 nM each time.
